Results as given in patent US10344032B2, “Agents for treating neurogenic inflammation and neuropathic hyperalgesia related disorders” (PÉCSI TUDOMÁNYEGYETEM, priority 2014, dated 2019).

| SMILES | melting point [°C] |
| --- | --- |
| Cc1c(C)n(Cc2ccccc2)c2ncnc(NCCc3ccc(NC(=O)c4cccc(C(F)(F)F)c4)cc3)c12 [Example 48, N-{4-[2-(7-Benzyl-5,6-dimethyl-7H-pyrrolo[2,3-d]pyrimidin-4-ylamino)-ethyl]-phenyl}-3-trifluoromethyl-benzamide] | 110 to 113 |
| Cc1c(C)n(Cc2ccccc2)c2ncnc(NCCc3ccc(NC(=O)c4ccc(Cl)cc4)cc3)c12 [Example 49, N-{4-[2-(7-Benzyl-5,6-dimethyl-7H-pyrrolo[2,3-d]pyrimidin-4-ylamino)-ethyl]-phenyl}-4-chloro-benzamide] | > 270 |
| Cc1c(C)n(Cc2ccccc2)c2ncnc(NCCc3ccc(NC(=O)c4ccccc4)cc3)c12 [Example 50, N-{4-[2-(7-Benzyl-5,6-dimethyl-7H-pyrrolo[2,3-d]pyrimidin-4-ylamino)-ethyl]-phenyl}-benzamide] | 180 to 182 |
| CCN(CC)C(=O)Nc1ccc(CCNc2ncnc3c2c(C)c(C)n3Cc2cccc(Cl)c2)cc1 [Example 52, 3-(4-{2-[7-(3-Chloro-benzyl)-5,6-dimethyl-7H-pyrrolo[2,3-d]pyrimidin-4-ylamino]-ethyl}-phenyl)-1,1-diethyl-urea] | 112.9 to 113.3 |
| CCN(CC)C(=O)Nc1ccc(CCNc2ncnc3c2c(C)c(C)n3Cc2ccccc2)cc1 [Example 53, 3-{4-[2-(7-Benzyl-5,6-dimethyl-7H-pyrrolo[2,3-d]pyrimidin-4-ylamino)-ethyl]-phenyl}-1,1-diethyl-urea] | 138.5 to 139 |
| Cc1c(C)n(Cc2ccccc2)c2ncnc(NCCc3ccc(NS(=O)(=O)c4ccc(F)cc4F)cc3)c12 [Example 54, N-{4-[2-(7-Benzyl-5,6-dimethyl-7H-pyrrolo[2,3-d]pyrimidin-4-ylamino)-ethyl]-phenyl}-2,4-difluoro-benzenesulfonamide] | 183 to 185 |
| Cc1c(C)n(Cc2cccc(Cl)c2)c2ncnc(NCCc3ccc(NS(C)(=O)=O)cc3)c12 [Example 55, N-(4-{2-[7-(3-Chloro-benzyl)-5,6-dimethyl-7H-pyrrolo[2,3-d]pyrimidin-4-ylamino]-ethyl}-phenyl)-methanesulfonamide] | 125 to 129 |
| Cc1c(C)n(Cc2ccccc2)c2ncnc(NCCc3ccc(NC(=O)Nc4cccc(C(F)(F)F)c4)cc3)c12 [Example 57, 1-{4-[2-(7-Benzyl-5,6-dimethyl-7H-pyrrolo[2,3-d]pyrimidin-4-ylamino)-ethyl]-phenyl}-3-(3-trifluoromethyl-phenyl)-urea] | 161.9 to 162.9 |
| Cc1c(C)n(Cc2ccco2)c2ncnc(NCCc3ccc(O)cc3)c12 [Example 59, 4-[2-(7-Furan-2-ylmethyl-5,6-dimethyl-7H-pyrrolo[2,3-d]pyrimidin-4-ylamino)-ethyl]-phenol] | 165 to 167 |
| Oc1ccc(CCNc2ncnc3c2ccn3Cc2ccccc2)cc1 [Example 60, 4-[2-(7-Benzyl-7H-pyrrolo[2,3-d]pyrimidin-4-ylamino)-ethyl]-phenol] | 199.2 to 200.6 |
| Cc1c(C)n(Cc2cccc(Cl)c2)c2ncnc(NCCc3ccc(O)cc3)c12 [Example 61, 4-{2-[7-(3-Chloro-benzyl)-5,6-dimethyl-7H-pyrrolo[2,3-d]pyrimidin-4-ylamino]-ethyl}-phenol] | 167.7 to 170 |
| Cc1c(C)n(Cc2ccccc2)c2ncnc(NCCc3ccc(N(C)C)cc3)c12 [Example 62, (7-Benzyl-5,6-dimethyl-7H-pyrrolo[2,3-d]pyrimidin-4-yl)-[2-(4-dimethylamino-phenyl)-ethyl]-amine] | 95 to 96.6 |
